# Measurements as given in PubChem BioAssay AID1963974 (Molecular Pharmacology Branch, DTP, NCI, 2024).
# pIC50: −log10 of the molar value.
# Tested on: 648629-189-R-J1-PDC spheroids with HUVEC/MSC, viability
# Test: Anticancer human tumor 648629-189-R-J1-PDC patient-derived bladder carcinoma cell line growth inhibition [PI3K]
# Details: for pIC50: curve of first compound; for viability, T/C: stronger effect = lower value
# How it was run: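 High-throughput combination screen: PI3K inhibitors crossed with targeted small molecules on complex spheroids of tumor cells, HUVEC and MSCs at 37 degrees C, 5% CO2. Top concentration was at or near clinical Cmax (otherwise 10 microM), with half-log decrements.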
# 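Note: spheroids exposed to agents for seven days before reading.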
# 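Throughout, for viability, T/C: percent of vehicle control luminescence where 100% = DMSO treated spheroids.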
structure (smiles),measurement,setting,value
CNC(=O)c1ccc(N2C(=S)N(c3ccc(C#N)c(C(F)(F)F)c3)C(=O)C2(C)C)cc1F + Cc1nc(NC(=O)N2CCCC2C(N)=O)sc1-c1ccnc(C(C)(C)C(F)(F)F)c1,pIC50,second compound 0.0316 µM,< 5.00
same,pIC50,second compound 0.1 µM,< 5.00
same,pIC50,second compound 0.316 µM,< 5.00
same,pIC50,second compound 1 µM,< 5.00
same,pIC50,second compound 3.16 µM,< 5.00
same,pIC50,second compound 10 µM,> 7.50
same,"viability, T/C","second compound 0.0316 µM, first compound 0.0316 µM",106%
same,"viability, T/C","second compound 0.0316 µM, first compound 0.1 µM",105%
same,"viability, T/C","second compound 0.0316 µM, first compound 0.316 µM",118%
same,"viability, T/C","second compound 0.0316 µM, first compound 1 µM",111%
same,"viability, T/C","second compound 0.0316 µM, first compound 3.16 µM",104%
same,"viability, T/C","second compound 0.0316 µM, first compound 10 µM",89.7%
same,"viability, T/C","second compound 0.1 µM, first compound 0.0316 µM",90.1%
same,"viability, T/C","second compound 0.1 µM, first compound 0.1 µM",92.7%
same,"viability, T/C","second compound 0.1 µM, first compound 0.316 µM",106%
same,"viability, T/C","second compound 0.1 µM, first compound 1 µM",102%
same,"viability, T/C","second compound 0.1 µM, first compound 3.16 µM",102%
same,"viability, T/C","second compound 0.1 µM, first compound 10 µM",79%
same,"viability, T/C","second compound 0.316 µM, first compound 0.0316 µM",91.4%
same,"viability, T/C","second compound 0.316 µM, first compound 0.1 µM",99.7%
same,"viability, T/C","second compound 0.316 µM, first compound 0.316 µM",98.1%
same,"viability, T/C","second compound 0.316 µM, first compound 1 µM",98.4%
same,"viability, T/C","second compound 0.316 µM, first compound 3.16 µM",89.7%
same,"viability, T/C","second compound 0.316 µM, first compound 10 µM",72.8%
same,"viability, T/C","second compound 1 µM, first compound 0.0316 µM",73.2%
same,"viability, T/C","second compound 1 µM, first compound 0.1 µM",82.3%
same,"viability, T/C","second compound 1 µM, first compound 0.316 µM",76.7%
same,"viability, T/C","second compound 1 µM, first compound 1 µM",81.1%
same,"viability, T/C","second compound 1 µM, first compound 3.16 µM",78.6%
same,"viability, T/C","second compound 1 µM, first compound 10 µM",75.2%
same,"viability, T/C","second compound 3.16 µM, first compound 0.0316 µM",64%
same,"viability, T/C","second compound 3.16 µM, first compound 0.1 µM",67.1%
same,"viability, T/C","second compound 3.16 µM, first compound 0.316 µM",55.1%
same,"viability, T/C","second compound 3.16 µM, first compound 1 µM",60.7%
same,"viability, T/C","second compound 3.16 µM, first compound 3.16 µM",64.7%
same,"viability, T/C","second compound 3.16 µM, first compound 10 µM",63.2%
same,"viability, T/C","second compound 10 µM, first compound 0.0316 µM",40.3%
same,"viability, T/C","second compound 10 µM, first compound 0.1 µM",44.1%
same,"viability, T/C","second compound 10 µM, first compound 0.316 µM",40.2%
same,"viability, T/C","second compound 10 µM, first compound 1 µM",42%
same,"viability, T/C","second compound 10 µM, first compound 3.16 µM",45.7%
same,"viability, T/C","second compound 10 µM, first compound 10 µM",48.6%
Cn1cnc2c(F)c(Nc3ccc(Br)cc3Cl)c(C(=O)NOCCO)cc21 + Cc1nc(NC(=O)N2CCCC2C(N)=O)sc1-c1ccnc(C(C)(C)C(F)(F)F)c1,pIC50,second compound 0.0316 µM,< 5.52
same,pIC50,second compound 0.1 µM,< 5.52
same,pIC50,second compound 0.316 µM,< 5.52
same,pIC50,second compound 1 µM,< 5.52
same,pIC50,second compound 3.16 µM,< 5.52
same,pIC50,second compound 10 µM,> 8.02
same,"viability, T/C","second compound 0.0316 µM, first compound 0.00949 µM",94.3%
same,"viability, T/C","second compound 0.0316 µM, first compound 0.03 µM",95.2%
same,"viability, T/C","second compound 0.0316 µM, first compound 0.0949 µM",99%
same,"viability, T/C","second compound 0.0316 µM, first compound 0.3 µM",90%
same,"viability, T/C","second compound 0.0316 µM, first compound 0.949 µM",93%
same,"viability, T/C","second compound 0.0316 µM, first compound 3 µM",70.5%
same,"viability, T/C","second compound 0.1 µM, first compound 0.00949 µM",92.8%
same,"viability, T/C","second compound 0.1 µM, first compound 0.03 µM",90.7%
same,"viability, T/C","second compound 0.1 µM, first compound 0.0949 µM",98.1%
same,"viability, T/C","second compound 0.1 µM, first compound 0.3 µM",95.4%
same,"viability, T/C","second compound 0.1 µM, first compound 0.949 µM",86.2%
same,"viability, T/C","second compound 0.1 µM, first compound 3 µM",75.8%
same,"viability, T/C","second compound 0.316 µM, first compound 0.00949 µM",94.6%
same,"viability, T/C","second compound 0.316 µM, first compound 0.03 µM",93.8%
same,"viability, T/C","second compound 0.316 µM, first compound 0.0949 µM",77.2%
same,"viability, T/C","second compound 0.316 µM, first compound 0.3 µM",85.2%
same,"viability, T/C","second compound 0.316 µM, first compound 0.949 µM",81.7%
same,"viability, T/C","second compound 0.316 µM, first compound 3 µM",72.4%
same,"viability, T/C","second compound 1 µM, first compound 0.00949 µM",80.7%
same,"viability, T/C","second compound 1 µM, first compound 0.03 µM",78.2%
same,"viability, T/C","second compound 1 µM, first compound 0.0949 µM",71.3%
same,"viability, T/C","second compound 1 µM, first compound 0.3 µM",75.5%
same,"viability, T/C","second compound 1 µM, first compound 0.949 µM",72.9%
same,"viability, T/C","second compound 1 µM, first compound 3 µM",64.2%
same,"viability, T/C","second compound 3.16 µM, first compound 0.00949 µM",54.6%
same,"viability, T/C","second compound 3.16 µM, first compound 0.03 µM",60.1%
same,"viability, T/C","second compound 3.16 µM, first compound 0.0949 µM",59.2%
same,"viability, T/C","second compound 3.16 µM, first compound 0.3 µM",52.1%
same,"viability, T/C","second compound 3.16 µM, first compound 0.949 µM",57.1%
same,"viability, T/C","second compound 3.16 µM, first compound 3 µM",52.7%
same,"viability, T/C","second compound 10 µM, first compound 0.00949 µM",39.5%
same,"viability, T/C","second compound 10 µM, first compound 0.03 µM",34.4%
same,"viability, T/C","second compound 10 µM, first compound 0.0949 µM",34.7%
same,"viability, T/C","second compound 10 µM, first compound 0.3 µM",40.2%
same,"viability, T/C","second compound 10 µM, first compound 0.949 µM",44.8%
same,"viability, T/C","second compound 10 µM, first compound 3 µM",38.1%
